“And” between values parts separate entries of the source, which are not always exact repeats. Equal values may be shown once. Read-outs that look alike come from different tables or passages of the source.
Tests used:
[1] = Stability on storage and handling; assay type: physicochemical; conditions: for decomposes almost completely in solution within: in solution (such as in ethyl acetate or chlorinated solvent) even at 0° C.; for powdered solid stored without decomposition: in the refrigerator
[2] = Absorption spectra obtained in toluene at room temperature; assay type: physicochemical; conditions: for ΔνQy: redshift relative to the parent chlorin (ZnC or Zn—M^10), toluene; for Qy band / B/Qy band intensity ratio: toluene at room temperature; for Qy band: normalized at the B bands
Text: (§1) Absorption Spectra. The spectral properties of interest in the chlorins include the position of the long-wavelength Qy transition, the intensity of the Qy transition, and the fluorescence quantum yield of the chlorin. The intensity of the Qy transition can be assessed by the measured molar absorption coefficient; however, comparisons of such values are somewhat unreliable given the experimental variability encountered upon handling small quantities of materials. A better comparison is achieved by examination of the ratio of the intensities of the B and Qy bands for a given compound (B/Qy ratio), which is determined simply by absorption spectroscopy without requiring determination of the molar absorption coefficient. For a wide variety of applications, bathochromic and hyperchromic shifts of the Qy band are desired (i.e., shifted to longer wavelength and intensified), thereby affording strong absorption in the deep-red region.
General. ^1H NMR (400 MHz) and ^13C NMR (75 MHz) spectra were collected at room temperature in CDCl3. Absorption spectra were obtained in toluene at room temperature. Chlorins were analyzed by laser desorption mass spectrometry (LD-MS) in the absence of a matrix. Fast atom bombardment mass spectrometry (FAB-MS) data are reported for the molecule ion or protonated molecule ion. Melting points are uncorrected. All commercially available materials were used as received. All palladium-coupling reactions were carried out using standard Schlenk-line techniques.
as §1, with “B. Absorption” for “Absorption”, “Spectroscopy.” for “Spectra.”, “increased” for “intensified), thereby affording strong absorption”, “intensity).” for “the deep-red region.”
General. ^1H NMR (400 MHz) and ^13C NMR (75 MHz) spectra were collected at room temperature in CDCl3 unless noted otherwise. Absorption spectra were obtained in toluene at room temperature. Chlorins were analyzed by laser desorption mass spectrometry (LD-MS) in the absence of a matrix. Metalation of free base chlorins was monitored by fluorescence spectroscopy. Melting points are uncorrected. All commercially available materials were used as received.

[3] = cited from earlier work; for Qy band / εQy: chlorophylls; for Qy band: FIG. 3, in diethyl ether at room temperature; for εQy: Strain and Svec (FIG. 3)
[4] = Table 1, in toluene at room temperature
[5] = Table 1, literature value, in diethyl ether
[6] = Table 3, Ref Jones et al., in diethyl ether
[7] = Table 3, zinc chlorins in toluene at room temperature
[8] = figure legends (FIG. 1, 2, 4, 5)

## CCCCB(CCCC)n1c(C(=O)c2ccc(C)cc2)ccc1C(c1ccc[nH]1)c1c(C)cc(C)cc1C (stereo not drawn) [Bu2B-3, 10-(Dibutylboryl)-5-mesityl-1-p-toluoyldipyrromethane]
[1]
  stability (in words): decomposes partially at room temperature

## CC(=O)c1cc2[n-]c1cc1nc(cc3ccc([n-]3)c(-c3ccc(C)cc3)c3nc(c2-c2c(C)cc(C)cc2C)C=C3)C(C)(C)C1.[Cu+2] [Cu-8, Cu(II)-13-Acetyl-17,18-dihydro-10-mesityl-18,18-dimethyl-5-p-tolylporphyrin]
[2]; [4]
  B/Qy intensity ratio: 3.1
  Log ε (M^−1cm^−1) (Qy band): 4.69 M^−1cm^−1
  λmax (nm), B: 420 nm
  λmax (nm), Qy: 631 nm

## Cc1ccc(C2=c3ccc4[n]3[Zn][n]3c(cc(Br)c3C=C3CC(C)(C)C(=N3)C=4)C(c3c(C)cc(C)cc3C)=C3C=CC2=N3)cc1 [Zn-6, Zn(II)-13-Bromo-17,18-dihydro-10-mesityl-18,18-dimethyl-5-p-tolylporphyrin]
[2]; [4]
  B/Qy intensity ratio: 4.0
  Log ε (M^−1cm^−1) (Qy band): 4.65 M^−1cm^−1
  λmax (nm), B: 414 nm
  λmax (nm), Qy: 616 nm

## C=Cc1c(C)c2cc3nc(c4c5[n-]c(cc6nc(cc1[n-]2)C(C=O)=C6CC)c(C)c5C(=O)[C@@H]4C(=O)OC)[C@@H](CCC(=O)OC/C=C(\C)CCC[C@H](C)CCC[C@H](C)CCCC(C)C)[C@@H]3C.[Zn+2] [Zn-chlorophyll b]
[3]; [5]
  B/Qy intensity ratio: 2.9
  λmax (nm), B: 446 nm
  λmax (nm), Qy: 634 nm
[3]; [6]
  B/Qy ratio: 2.9
  λmax (nm), B: 446 nm
  λmax (nm), Qy: 634 nm

## CC(=O)c1cc2[n]3c1C=C1CC(C)(C)C(=N1)C=c1cc(C#C[Si](C(C)C)(C(C)C)C(C)C)c([n]1[Zn]3)=CC1=NC(=C2)C=C1 [ZnC-E^3A^13]
[2]; Table 3
  ΔνQy: 1320 cm⁻¹
[2]; [7]
  B/Qy ratio: 1.2
  λmax (nm), B: 428 nm
  λmax (nm), Qy: 655 nm
[2]; [8]
  Qy band: 655 nm
[2]; figure legends (FIG. 4, 5)
  B/Qy band intensity ratio: 1.2

## CC(C)[Si](C#Cc1cc2[n]3c1C=C1CC(C)(C)C(=N1)C=c1cc(C#C[Si](C(C)C)(C(C)C)C(C)C)c([n]1[Zn]3)=CC1=NC(=C2)C=C1)(C(C)C)C(C)C [ZnC-E^3E^13]
[2]; Table 3
  ΔνQy: 1080 cm⁻¹
[2]; [7]
  B/Qy ratio: 1.4
  λmax (nm), B: 421 nm
  λmax (nm), Qy: 645 nm
[2]; figure legends (FIG. 4, 5)
  Qy band: 645

## CC(=O)c1cc2[n]3c1C=C1CC(C)(C)C(=N1)C=c1cc(C#C[Si](C(C)C)(C(C)C)C(C)C)c([n]1[Zn]3)=CC1=NC(=C2c2c(C)cc(C)cc2C)C=C1 [ZnC-E^3M^10A^13, Zn(II)-13-Acetyl-3-[2-(triisopropylsilyl)ethynyl]-17,18-dihydro-10-mesityl-18,18-dimethylporphyrin]
[2]; Table 3
  ΔνQy: 1160 cm⁻¹
[2]; [7]
  B/Qy ratio: 1.5
  λmax (nm), B: 428 nm
  λmax (nm), Qy: 652 nm
[2]; figure legend (FIG. 4)
  Qy band: 652
[2]; figure legends (FIG. 4, 5)
  B/Qy band intensity ratio: 1.5

## Cc1cc(C)c(C2=c3cc(C#C[Si](C(C)C)(C(C)C)C(C)C)c4[n]3[Zn][n]3c(cc(C#C[Si](C(C)C)(C(C)C)C(C)C)c3C=C3C=CC2=N3)C=C2N=C(C=4)CC2(C)C)c(C)c1 [ZnC-E^3M^10E^13, Zn(II)-3,13-Bis[2-(triisopropylsilyl)ethynyl]-17,18-dihydro-10-mesityl-18,18-dimethylporphyrin]
[2]; Table 3
  ΔνQy: 1020 cm⁻¹
[2]; [7]
  B/Qy ratio: 1.6
  λmax (nm), Qy: 646 nm
[2]; [8]
  Qy band: 646 nm

## CC(=O)c1cc2[n]3c1C=C1CC(C)(C)C(=N1)C=c1ccc([n]1[Zn]3)=CC1=NC(=C2c2c(C)cc(C)cc2C)C=C1 [ZnC-M^10A^13, Zn(II)-13-Acetyl-17,18-dihydro-10-mesityl-18,18-dimethylporphyrin]
[2]; Table 3
  ΔνQy: 680 cm⁻¹
[2]; [7]
  B/Qy ratio: 2.2
  λmax (nm), B: 418 nm
  λmax (nm), Qy: 632 nm
[2]; figure legends (FIG. 4, 5)
  Qy band: 632

## Cc1cc(C)c(C2=c3cc(C#C[Si](C(C)C)(C(C)C)C(C)C)c4[n]3[Zn][n]3c(ccc3C=C3N=C(C=4)CC3(C)C)C=C3C=CC2=N3)c(C)c1 [ZnC-M^10E^13, Zn(II)-13-[2-(Triisopropylsilyl)ethynyl]-17,18-dihydro-10-mesityl-18,18-dimethylporphyrin]
[2]; Table 3
  ΔνQy: 530 cm⁻¹
[2]; [7]
  B/Qy ratio: 2.3
  λmax (nm), B: 412 nm
  λmax (nm), Qy: 626 nm

## C=Cc1cc2[n]3c1C=C1C=CC(=N1)C(c1c(C)cc(C)cc1C)=c1ccc([n]1[Zn]3)=CC1=NC(=C2)C(C)(C)C1 [ZnC-V^3M^10, Zn(II)-17,18-Dihydro-10-mesityl-18,18-dimethyl-3-vinylporphyrin]
[2]; Table 3
  ΔνQy: 400 cm⁻¹
[2]; [7]
  B/Qy ratio: 3.3
  λmax (nm), B: 413 nm
  λmax (nm), Qy: 621 nm

## C=Cc1c(C)c2cc3nc(c4c5[n-]c(cc6nc(cc1[n-]2)C(C)=C6CC)c(C)c5C(=O)[C@@H]4C(=O)OC)[C@@H](CCC(=O)OC/C=C(\C)CCC[C@H](C)CCC[C@H](C)CCCC(C)C)[C@@H]3C.[Mg+2] [chlorophyll a]
[3]; [5]
  B/Qy intensity ratio: 1.3
  λmax (nm), B: 430 nm
  λmax (nm), Qy: 662 nm
[3]; chlorophyll a, text (FIG. 3)
  B band: 430 nm
[3]
  Qy band: 662 nm
  εQy: 86,300 M^−1cm^−1

## C=Cc1c(C)c2cc3nc(c4c5[n-]c(cc6nc(cc1[n-]2)C(C=O)=C6CC)c(C)c5C(=O)[C@@H]4C(=O)OC)[C@@H](CCC(=O)OC/C=C(\C)CCC[C@H](C)CCC[C@H](C)CCCC(C)C)[C@@H]3C.[Mg+2] [chlorophyll b]
[3]
  Qy band: 642 nm and 644 nm
  εQy: 56,100 M^−1cm^−1

## Cc1ccc(C(=O)c2ccc(C(c3cc(Br)c(Br)[nH]3)c3c(C)cc(C)cc3C)[nH]2)cc1 (stereo not drawn) [compound 4, 8,9-Dibromo-5-mesityl-1-(4-methylbenzoyl)dipyrromethane]
[1]
  decomposes almost completely in solution within: 8 to 10 h
[1]; purified compound in solution even at 0° C.
  decomposed almost completely in solution within: 8 to 10 h
[1]; storage at −10° C.
  powdered solid stable on storage without decomposition: 1 to 2 days

## O=Cc1ccc(Cc2cc(Br)c(Br)[nH]2)[nH]1 [compound 14, 8,9-Dibromo-1-formyldipyrromethane]
[1]
  powdered solid stored without decomposition: 2-3 weeks

## Cc1cc(C)c(C(c2ccc(C=O)[nH]2)c2cc(Br)c(Br)[nH]2)c(C)c1 (stereo not drawn) [compound 16, 8,9-Dibromo-1-formyl-5-mesityldipyrromethane]
[1]
  decomposes almost completely in solution within: 18 to 20 h
  powdered solid stored without decomposition: 5 to 7 days

## CC(=O)CC(C)(C)C(Cc1ccc[nH]1)[N+](=O)[O-] (stereo not drawn) [compound 19, 4,4-Dimethyl-5-nitro-6-(1H-pyrrol-2-yl)hexan-2-one]
[1]; neat or in solution, at room temperature
  colour change from yellow to black indicating partial decomposition: 1 to 2 days

## Zn(II)-3-(2-(Triisopropylsilyl)ethynyl)-17,18-dihydro-10-mesityl-18,18-dimethylporphyrin [ZnC-E^3M^10]
[2]; Table 3
  ΔνQy: 550 cm⁻¹
[2]; [7]
  B/Qy ratio: 2.3
  λmax (nm), B: 416 nm
  λmax (nm), Qy: 627 nm

## pheophytin a
[3]; [5]
  B/Qy intensity ratio: 2.1
  Log ε (M^−1cm^−1) (Qy band): 5.12
  λmax (nm), B: 408 nm
  λmax (nm), Qy: 667 nm

Reference: patent publication US8207329B2, “Synthesis of chlorins and phorbines with enhanced red spectral features” (North Carolina State University, priority 2005, dated 2012)
